Results: ChEMBL document CHEMBL1134842, “Mononuclear platinum(II) complex with 2-phenylpyridine ligands showing high cytotoxicity against mouse sarcoma 180 cells acquiring high cisplatin resistance” (J Med Chem, 2001)

Legend:
[1] = Cytotoxicity against S-180 cells by MTT assay.; type: functional, cell-based, Mus musculus
[2] = Cytotoxicity against S-180cisR cells by MTT assay.; type: functional, cell-based, Mus musculus

Row | Substance | IC50 [1] [nM] | IC50 [2] [µM]
1 | CISPLATIN | 2400 | 59
2 | cis-[PtCl2(NH3)(2-C6H5CH2C5H4N)] |  | 49
3 | cis-[PtCl2(NH3)(2-CH3C5H4N)] |  | 49
4 | cis-[PtCl2(NH3)(3-CH3C5H4N)] |  | 49
5 | cis-[PtCl2(NH3)(3-CH3CH2C5H4N)] |  | 49
6 | cis-[PtCl(2-C6H4C5H4)(2-C6H5C5H4N)] | 3100 | 8.6
